≈ marks a conversion by molar mass, not a printed value.
How the values were obtained:
Assay type in all cases: functional
Candida albicans = experiment: Antimicrobial activity against Candida albicans DSM 70014 after 48 hr by two-fold serial broth dilution method; conditions: DSM 70014, 48 h
Bacillus subtilis = experiment: Antimicrobial activity against Bacillus subtilis ATCC 6633 after 48 hr by two-fold serial broth dilution method; conditions: ATCC 6633, 48 h
SR = experiment: Growth inhibition of Homo sapiens (human) SR cells at 10 uM after 48 hr by SRB assay; conditions: read-out: GI
Staphylococcus aureus [1] = experiment: Antimicrobial activity against Staphylococcus aureus DSM 1104 after 48 hr by two-fold serial broth dilution method; conditions: DSM 1104, 48 h
Escherichia coli = experiment: Antimicrobial activity against Escherichia coli ATCC 11775 after 48 hr by two-fold serial broth dilution method; conditions: ATCC 11775, 48 h
Pseudomonas aeruginosa [2] = experiment: Antimicrobial activity against Pseudomonas aeruginosa ATCC 10145 after 48 hr by two-fold serial broth dilution method; conditions: ATCC 10145, 48 h
Pseudomonas aeruginosa [3] = experiment: Ratio of ampicillin MIC to compound MIC for Pseudomonas aeruginosa ATCC 10145 after 48 hr by two-fold serial broth dilution method
T47D = experiment: Growth inhibition of Homo sapiens (human) T47D cells at 10 uM after 48 hr by SRB assay; conditions: read-out: GI
UO-31 = experiment: Growth inhibition of Homo sapiens (human) UO31 cells at 10 uM after 48 hr by SRB assay; conditions: UO-31, 48 h, read-out: GI
Staphylococcus aureus [4] = experiment: Antimicrobial activity against Staphylococcus aureus DSM 1104 after 48 hr by two-fold serial broth dilution method relative to ampicillin

Structure (SMILES) | MFC (Candida albicans) [mg/L] | MIC (Candida albicans) [mg/L] | MBC (Bacillus subtilis) [mg/L] | MIC (Bacillus subtilis) [mg/L] | inhibition of growth at 10 µM (SR) [%] | MBC (Staphylococcus aureus [1]) [mg/L] | MIC (Staphylococcus aureus [1]) [mg/L] | MBC (Escherichia coli) [mg/L] | MIC (Escherichia coli) [mg/L] | MBC (Pseudomonas aeruginosa [2]) [mg/L] | MIC (Pseudomonas aeruginosa [2]) [mg/L] | Ratio (Pseudomonas aeruginosa [3]) | inhibition of growth at 10 µM (T47D) [%] | inhibition of growth at 10 µM (UO-31) [%] | Activity (Staphylococcus aureus [4]) [%]
COc1ccc(OC)c(/C=C/c2nnc(Nc3ccc(Cl)cc3)s2)c1 | 50 (≈ 134 µM) | 25 (≈ 66.9 µM) | 100 (≈ 267 µM) | 100 (≈ 267 µM) | 32.1 | 100 (≈ 267 µM) | 25 (≈ 66.9 µM) | 100 (≈ 267 µM) | 100 (≈ 267 µM) | 100 (≈ 267 µM) | 100 (≈ 267 µM) |  |  |  | 
COc1ccc(OC)c(/C=C/c2nnc(SC)n2-c2ccccc2)c1 | 50 (≈ 141 µM) | 50 (≈ 141 µM) | 50 (≈ 141 µM) | 50 (≈ 141 µM) |  | 50 (≈ 141 µM) | 50 (≈ 141 µM) | 50 (≈ 141 µM) | 50 (≈ 141 µM) | 50 (≈ 141 µM) | 25 (≈ 70.7 µM) | 2 | 41.8 | 44.5 | 
COc1ccc(OC)c(/C=C/c2nnc(S)n2-c2ccc(C)cc2)c1 | 50 (≈ 141 µM) | 25 (≈ 70.7 µM) | 25 (≈ 70.7 µM) | 12.5 (≈ 35.4 µM) |  | 25 (≈ 70.7 µM) | 12.5 (≈ 35.4 µM) | 50 (≈ 141 µM) | 25 (≈ 70.7 µM) | 50 (≈ 141 µM) | 50 (≈ 141 µM) |  |  |  | 40
COc1ccc(OC)c(/C=C/c2nnc(SCC(=O)c3cc(O)ccc3O)n2-c2ccccc2)c1 | 50 (≈ 102 µM) | 50 (≈ 102 µM) | 50 (≈ 102 µM) | 25 (≈ 51.1 µM) |  | 50 (≈ 102 µM) | 25 (≈ 51.1 µM) | 25 (≈ 51.1 µM) | 12.5 (≈ 25.5 µM) | 25 (≈ 51.1 µM) | 12.5 (≈ 25.5 µM) | 4 |  |  | 

From ChEMBL document CHEMBL3046389, “Synthesis and biological evaluation of novel hydroquinone dimethyl ethers as potential anticancer and antimicrobial agents” (2013)
